Reference: paper PMC7179302, “Lead Optimization of Dehydroemetine for Repositioned Use in Malaria” (Antimicrobial Agents and Chemotherapy, 2020)
Structures can show the parent of a compound that is named as a salt.

What was measured:
[1] = tested on: P. falciparum strain Dd2; assay: microbe, parasite or virus in culture; format: cell-based; conditions: Plasmodium falciparum, DD2, read-out: IC50 (μM) Dd2
Description: (§1) The cross-resistance assay used relies on the parasites’ incorporation of labeled 3H-hypoxanthine, which is proportional to P. falciparum growth. In vitro cross-resistance of the compounds is measured as the ratio between the IC50 for the tested P. falciparum strain and the IC50 for strain 3D7A. Every replicate from a multidrug-resistant (MDR) strain involved a simultaneous determination using a 3D7A replicate to avoid any artifact linked to experimental conditions.
(§2) The three strains used for the cross-resistance assay were 3D7A, Dd2, and W2, based on their resistance profiles; the assay was carried out by GSK, Tres Cantos. Strain 3D7A is chloroquine sensitive, strain Dd2 is resistant to chloroquine, mefloquine, and pyrimethamine ([57]), and strain W2 is resistant to chloroquine, quinine, pyrimethamine, cycloguanil, and sulfadoxine (from the Malaria Research and Reference Reagent Resource Center [MR4]) ([58]). A culture of red blood cells (RBCs) parasitized by the corresponding strain (0.5% parasitemia, 2% hematocrit) in RPMI 1640, […], and 5 μM hypoxanthine was exposed to 9 dilutions (3-fold serial dilutions) of the compound starting at 5 μM. One hundred microliters of culture volume was plated in 96-well flat-bottom microtiter plates with 0.5 μl drug (200× stock in DMSO). Plates were incubated for 24 h at 37°C, 5% CO2, 5% O2, 90% N2. Next, 3H-hypoxanthine was added and plates were incubated for another 24-h period. After that, parasites were harvested on a glass fiber filter using a TomTec cell harvester 96. Filters were dried, and melt-on scintillator sheets were used to determine the incorporation of 3H-hypoxanthine. Radioactivity was measured using a MicroBeta counter. […] IC50 values were determined using the Grafit 7 program ([41]).

[2] = tested on: P. falciparum strain W2; assay: microbe, parasite or virus in culture; format: cell-based; conditions: Plasmodium falciparum, W2, read-out: IC50 (μM) W2
Description: as §1, §2

[3] = tested on: mitochondrial membrane potential of P. falciparum strain K1 trophozoites; assay: Rhodamine 123 staining for mitochondrial membrane potential, flow cytometry; format: cell-based, Plasmodium falciparum; conditions: deviation from infected blood without drugs
Description: Changes in mitochondrial membrane potential were measured using rhodamine 123 (excitation wavelength, 511 nm; emission wavelength, 534 nm), a membrane-permeating cationic fluorescent dye ([49]), which accumulates by electrostatic attraction in the mitochondria because of its negative transmembrane potential. A change in the dye’s concentration in the mitochondria is caused by a depolarization event and can be visualized as a shift in the fluorescence intensity of rhodamine 123 ([50]). Draq5 (excitation wavelength, 647 nm; emission wavelength, >665 nm) is a far-red fluorescent DNA dye which is cell permeating and was used to distinguish the parasites in flow cytometry in the allophycocyanin (APC)-Cy7-A channel. SYBR green was not preferred for this experiment as it emits in the same channel as rhodamine 123 and would result in the overlap of emission signals. Fluorescence microscopy was used to visualize the localization of rhodamine 123 within the cytoplasm of the parasites (Fig. 9).
A decrease in fluorescence intensity measured in the fluorescein isothiocyanate (FITC)-A channel indicates a loss of mitochondrial membrane potential. Atovaquone, a known mitochondrial inhibitor, was used as a control.
Compounds were then washed away by centrifuging the cultures, and a pellet was prepared for each drug concentration. Pellets were then incubated with 1 ml of 200 nM rhodamine 123 for 1 h, followed by a further incubation with 100 μl of 5 μM Draq5 for 20 min. After a wash with PBS, the experiment was read with a flow cytometer on the FITC channel. Loss of mitochondrial membrane potential was indicated by a decrease in fluorescence intensity.

Compound: CCC1=C(C[C@H]2NCCc3cc(OC)c(OC)cc32)C[C@H]2c3cc(OC)c(OC)cc3CCN2C1 [(−)-R,S-dehydroemetine, (S)-2-((R)-6,7-dimethoxy-1,2,3,4-tetrahydro-isoquinolin-1-ylmethyl)-3-ethyl-9,10-dimethoxy-1,6,7,11b-tetrahydro-4H-pyrido[2,1-a]isoquinoline * dihydrobromide]
- IC50 [1]: 0.177 µM
- IC50 [2]: 0.168 µM
- Change in fluorescence intensity (FITC-A mean) of rhodamine 123 ([3]; at 10× IC50, 2 h): 32.98%
- Change in fluorescence intensity (FITC-A mean) of rhodamine 123 ([3]; at IC50, 2 h): 26.76%
